The values that follow come from patent US9757399B2, “Butyrylcholinesterase inhibitors” (priority 2006, dated 2017).

“And” between values parts separate entries of the source, which are not always exact repeats. Equal entries are not always repeated. Where two headings read alike, the source gives them in different places.

Series [1] concerns human umbilical cells. It counts as in vitro ADME. The procedure: Also, the uptake of di-n-butyl-2-chlorophenyl phosphate by human umbilical cells was measured after […] for both undifferentiated cells and differentiating neurons. (Table 6)
In series [2] the target is T1, BuChase (Equus caballus, UniProt P81908).
T1 construct: butyrylcholinesterase (from horse serum); purchased Sigma; host or cells: horse serum (natural source)
T1 sequence (P81908 whole entry): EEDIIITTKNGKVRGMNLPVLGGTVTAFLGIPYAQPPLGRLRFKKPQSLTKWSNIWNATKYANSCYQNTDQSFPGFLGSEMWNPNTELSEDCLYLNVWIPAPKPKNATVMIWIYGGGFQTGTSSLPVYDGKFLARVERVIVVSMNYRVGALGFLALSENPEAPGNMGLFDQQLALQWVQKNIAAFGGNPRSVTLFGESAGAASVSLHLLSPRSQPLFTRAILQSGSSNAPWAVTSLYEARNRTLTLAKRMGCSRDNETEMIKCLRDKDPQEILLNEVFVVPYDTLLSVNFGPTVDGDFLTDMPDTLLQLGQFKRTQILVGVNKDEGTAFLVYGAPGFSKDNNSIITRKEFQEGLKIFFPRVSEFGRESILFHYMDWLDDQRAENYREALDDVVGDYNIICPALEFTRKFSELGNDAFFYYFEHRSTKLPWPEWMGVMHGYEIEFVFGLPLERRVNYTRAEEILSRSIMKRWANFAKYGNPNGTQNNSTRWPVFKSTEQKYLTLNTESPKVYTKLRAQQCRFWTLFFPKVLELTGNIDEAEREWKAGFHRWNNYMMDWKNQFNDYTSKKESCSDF
As to the kind of experiment: MALDI-TOF of tryptic peptides of inhibitor-treated BuChase. On the procedure: BuChase was incubated with di-n-butyl-2-chlorophenyl phosphate. Excess inhibitor was removed and the enzyme was digested with trypsin. The tryptic peptides were then analyzed by MALDI-TOF. Unmodified peptide containing the active site serine (MW 2198.86) and modified peptide (MW 2390.9060) can be seen. […] Irreversible inhibitors usually covalently modify an enzyme, and inhibition cannot therefore be reversed.

Series [3] deals with S6K2 (Homo sapiens, UniProt Q9UBS0). The experiment in a line: S6K2 activity (GST-S6 substrate, Pro-Q stain). It counts as biochemical. The note with it: varying concentrations, 30 minutes on ice, then ATP 30° C. 15 minutes. The procedure: For protein kinase activity, histone was used as the substrate for protein kinase A (PKA) and glutathione-S-transferase-S6 (GST-S6) for S6K2. Enzyme was pre-incubated with substrate and varying concentrations of inhibitor on ice for 30 minutes. The control sample contained solvent (methanol). ATP was then added to each sample and the cocktail incubated at 30° C. for 15 minutes. Equal amounts of each mixture were fractionated by SDS-PAGE on a 10% acrylamide gel. The gel was fixed in 50% methanol/10% acetic acid, washed with water, and then stained in Pro-Q Stain in the dark for 60 minutes. The gel was then destained, washed, and scanned on a Typhoon Imager (FIG. 5).
Chain of S6K2 (Q9UBS0 whole entry, looked up): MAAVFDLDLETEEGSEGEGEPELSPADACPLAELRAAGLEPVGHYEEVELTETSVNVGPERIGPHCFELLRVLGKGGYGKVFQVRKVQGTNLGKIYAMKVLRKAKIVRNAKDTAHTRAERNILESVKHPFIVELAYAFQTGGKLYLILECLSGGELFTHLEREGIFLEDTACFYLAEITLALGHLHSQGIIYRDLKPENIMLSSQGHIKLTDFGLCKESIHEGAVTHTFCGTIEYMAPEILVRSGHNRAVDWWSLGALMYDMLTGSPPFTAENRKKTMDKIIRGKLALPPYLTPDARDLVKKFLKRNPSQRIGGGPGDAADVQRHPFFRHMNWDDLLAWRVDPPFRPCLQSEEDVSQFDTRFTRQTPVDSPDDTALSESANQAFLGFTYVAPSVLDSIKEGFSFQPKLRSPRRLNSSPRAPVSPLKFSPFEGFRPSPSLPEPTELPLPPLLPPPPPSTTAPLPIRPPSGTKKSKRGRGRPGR

The test system of series [4] is trypsin. The experiment in a line: Trypsin activity (BAEE hydrolysis). Format: biochemical. The note with it: 10 μM, 60 minutes at 25° C. On the procedure:
The effect of DB2ClPP (di-n-butyl 2-chlorophenyl phosphate) on the activity of trypsin was assayed. Trypsin was incubated with solvent, 10 μM DB2CPP, or 10 μM DIFP (a known inhibitor of trypsin) for 60 minutes at 25° C. to determine any inhibitory effect of DB2CPP on enzymatic activity. Enzyme activity is given as nmoles of BAEE hydrolyzed per minute at 25° C. Data shown are the mean of three replicates ±SEM. (FIG. 3)

The target of series [5] is T2, butyrylcholinesterase (from horse serum) (Equus caballus, UniProt P81908).
T2 construct: butyrylcholinesterase (from horse serum); purchased Sigma; host or cells: horse serum (natural source)
T2 sequence (P81908 whole entry): as the sequence (P81908 whole entry) above
As to the kind of experiment: Rates of inactivation of butyrylcholinesterase, Ellman assay. Format: biochemical. The note with it: 100 nM inhibitor, 25° C. The procedure:
Acetylcholinesterase (from electric eel), butyrylcholinesterase (from horse serum), DTNB, butyrylthiocholine, acetylthiocholine, and BSA were purchased from Sigma. The dialkyl 2-chlorophenyl (and 4-chlorophenyl) phosphates were solubilized in reagent grade methanol.
Cholinesterase activity measurements were performed essentially according to the method of Ellman (Biochemical Pharmacology 7:88-90, 1961). The composition of the assay mixture was 0.1 M sodium phosphate, pH 7.5, 0.033 M DTNB, 0.001 M MgCl2, and 100 μg/mL of BSA containing appropriate amounts of substrate and inhibitor. Each assay was initiated by the addition of substrate and the activity quantified by measuring the formation of the thionitrobenzoate anion at 412 nm at 37° C. Methanol used to solubilize the dialkyl phenyl phosphates [1% (v/v) final concentration] had no inhibitory effect on either enzyme.
Butyrylcholinesterase was pre-incubated at room temperature with inhibitor in the assay cocktail minus substrate for varying periods of time at 25° C. Substrate was then added and the activity measured as described above. The relative rates of enzyme inactivation were determined by plotting enzyme activity versus time of pre-incubation with inhibitor. Results were expressed as the rate constant for the rate of enzyme inactivation. In the case of AcChase, results were expressed as the % of activity remaining relative to the enzyme incubated only with solvents.
. […] In Table 2, BuChase was incubated for increasing periods of time at 25° C. with 100 nM inhibitor then assayed for activity as described above. Rate constants were calculated from a plot of enzyme activity vs. time of inhibitor exposure. […]. Slopes were calculated by linear regression analysis.

The subject of series [6] is porcine umbilical stem cells. Format: in vitro ADME. The procedure:
In addition, uptake of di-n-butyl-2-chlorophenyl phosphate by porcine umbilical stem cells was measured after 24 and 48 hours of culture (Table 5).

The format of series [7] is in vivo, male Long-Evans rats. The note with it: rat, intraperitoneal 0.2 mL of 10 mg/mL in DMSO, 30 minutes, brain tissue (1.5 g), GC/MS; one value per animal. The procedure:
An animal study using two groups (n=7/group) of male Long-Evans rats (200-225 g, Charles River, Portage, Mich.) was conducted to determine whether DB2ClPP crosses the blood brain barrier. DB2ClPP was dissolved in dimethyl sulfoxide (DMSO). Rats were injected intraperitoneally with either 0.2 mL DMSO (vehicle control) or 0.2 mL of a 10 mg/mL solution of DB2ClPP with DMSO as solvent. Thirty minutes after DB2ClPP treatment, animals were deeply anesthetized with isoflurane and then decapitated. Brains were removed quickly, rinsed in ice cold phosphate buffer saline (pH 7.4) and block dissected and flash frozen in liquid nitrogen and stored at −80° C. until assayed.
The tissue from two animals injected with DB2ClPP were processed as follows: i) brain tissue (1.5 g) was allowed to thaw on ice in a Dounce homogenizer; ii) 10 mL of methylene chloride was added and the tissue extracted with 20 strokes of the loose fitting pestle. The homogenate was clarified by centrifugation and the supernatant extracted three times with methylene chloride using a separatory funnel. The organic phase was collected, pooled, and dried over magnesium sulfate. The eluate was then concentrated down to a volume of approximately 200 μl under nitrogen and analyzed by GC/MS for the presence of the DB2ClPP. A solution of neat DB2ClPP served as control. The DB2ClPP was present in both samples. […]

Series [8] concerns the target T3, butyrylcholinesterase (Equus caballus, UniProt P81908).
T3 construct: butyrylcholinesterase (from horse serum); purchased Sigma; host or cells: horse serum (natural source)
The experiment in a line: Reactivation of inactive butyrylcholinesterase. Format: biochemical, horse. The procedure:
BuChase was incubated with excess di-butyl 2-chlorophenyl phosphate for 60 min at 4° C. The excess phosphate was removed using a desalting column. The inactivated BuChase was incubated at 4° C. for various periods of time and then assayed for activity. […]

Series [9] concerns porcine umbilical stem cells. It counts as cell-based. The note with it: increasing concentrations, 48 hours, Neurobasal Medium. On the procedure:
Porcine umbilical stem cells were cultured in Neurobasal Medium supplemented with B27 (Invitrogen) and antibiotics for various periods of with varying concentrations of di-n-butyl-2-chlorophenyl phosphate. Cells were collected, washed, counted, and analyzed for viability by Trypan Blue staining.

T3 sequence (P81908 whole entry): as above

As to `CCCCOP(=O)(OCCCC)Oc1ccccc1Cl` [DB2ClPP, Di-n-butyl 2-chlorophenyl phosphate], the “uptake, fg/cell” value in series [1] (Neurons, 0 hours) stood at 78.85 ± 8.04 fg/cell; in series [1] (Neurons, 24 hours), 820.52 ± 82.32 fg/cell; in series [1] (Undifferentiated cells, 0 hours) it was 114.72 ± 37.93 fg/cell; in series [1] (Undifferentiated cells, 24 hours), 795.89 ± 202.41 fg/cell. In addition, the “type of inhibition from covalent modification of active site serine peptide (FIG. 12)” value in series [2] is recorded as “likely an irreversible inhibitor”. Also, the “effect on S6K2 activity (FIG. 5)” value in series [3] is “none of the above mentioned enzymes were affected”. The “effect on trypsin activity (FIG. 3)” value in [4] is given as “none of the above mentioned enzymes were affected”. In addition, the “k, rate constant of inactivation of butyrylcholinesterase ± S.E.M” value in series [5] is on record as 64.76 ± 3.0 min^−1 × 10^−2. Further, the “fg DB2Cl-PP/cell (±SEM)” value was 2.55 ± 0.011 fg/cell in series [6] (0 hours), 11.57 ± 1.02 fg/cell in series [6] (24 hours) and 13.62 ± 0.003 fg/cell in series [6] (48 hours). For the same compound, in [7], the “amount of DB2ClPP in brain sample” value is 220 ng and 125 ng. The “% Remaining Activity” value in [8] (0 hours at 4° C. after removal of excess inhibitor) is on record as 0.6%; in series [8] (3.5 hours at 4° C. after removal of excess inhibitor), 0.6%; in series [8] (7 hours at 4° C. after removal of excess inhibitor), 0.8%; in [8] (24 hours at 4° C. after removal of excess inhibitor), 1.1%. In addition, the “reactivation of inactivated BuChase” value in [8] (over 24 hours at 4° C.) is given as “no significant reactivation”. Moreover, in series [9], the “effect on mortality of porcine umbilical stem cells (FIG. 7)” value is “did not have any significant effect on mortality”.
